The values that follow come from US11066413B2, “Aminopyrimidine five-membered heterocyclic compound, and intermediate, preparation method, pharmaceutical composition and application thereof” (GUANGZHOU MAXINOVEL PHARMACEUTICALS CO., LTD., priority 2017, dated 2021).

Sequence of hA2A receptor (P29274 whole entry): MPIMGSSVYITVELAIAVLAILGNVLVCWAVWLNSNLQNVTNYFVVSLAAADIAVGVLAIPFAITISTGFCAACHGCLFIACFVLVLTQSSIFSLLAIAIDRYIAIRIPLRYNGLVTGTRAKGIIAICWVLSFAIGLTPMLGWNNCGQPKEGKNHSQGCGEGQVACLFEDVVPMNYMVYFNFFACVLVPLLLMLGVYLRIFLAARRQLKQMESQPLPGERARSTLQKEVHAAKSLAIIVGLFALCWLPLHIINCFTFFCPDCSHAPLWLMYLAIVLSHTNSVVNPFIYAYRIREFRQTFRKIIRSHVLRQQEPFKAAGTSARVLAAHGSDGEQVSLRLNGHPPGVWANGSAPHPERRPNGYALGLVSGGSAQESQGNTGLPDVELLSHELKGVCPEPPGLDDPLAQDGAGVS

The target of this experiment is hA2A receptor (Homo sapiens (Human), UniProt P29274). Put plainly: binding affinity IC50 to hA2A receptor ([3H]-CGS 21680 filter binding, Effect Embodiment 2). As to conditions: A2A membrane, [3H]-CGS 21680 (final 25 nM), 90 minutes at 25° C. The method, then:
Evaluation experiment of the binding affinity IC50 of the compounds 1-61 to hA2A receptor
40 uL of ULTIMA GOLD scintillation fluid was added to each well and the CPM (count per minute) value was read by TopCount.
On to “2-amino-6-(5-methylfuran-2-yl)-9-(2-(trifluoromethyl)phenyl)-8(9H)-carbonyl-7H-purine [Compound 60]”, for which the IC50 worked out at 177 nM.

In turn, “2-amino-9-((2-fluorophenyl)methyl)-6-(furan-2-yl)-7-methyl-8,9-dihydro-7H-purinyl-8-one [Compound 40]” had a half-maximal inhibitory concentration (IC50) of 106 nM.

In the case of `Nc1nc(-c2ccco2)c2c(n1)C(Cc1ccc(Cl)cc1F)OC2=O` (stereo not shown) [Compound 2, 2-amino-7-(4-chloro-2-fluorobenzyl)-4-(furan-2-yl)-5H,7H-furo[3,4-d]pyrimidin-5-one], the IC50 was found to be 39.3 nM.

Consider `N#Cc1ccc(CC2OC(=O)c3c(-c4ccco4)nc(N)nc32)cc1F` (stereo not shown) [Compound 3], for which the IC50 came to 159 nM.

In turn, `N#Cc1ccc(CC2OC(=O)c3c(-c4ccco4)nc(N)nc32)cc1` (stereo not shown) [Compound 4] came in with an IC50 of 249 nM.

`Nc1nc(-c2ccco2)c2c(n1)C(Cc1ccccc1)OC2=O` (stereo not shown) [Compound 5, 2-amino-7-benzyl-4-(furan-2-yl)-5H,7H-furo[3,4-d]pyrimidin-5-one]: the IC50 stood at 40 nM.

`Nc1nc(-c2ccco2)c2c(n1)[C@@H](Cc1ccccc1)OC2` [Compound 6, (R)-7-benzyl-4-(furan-2-yl)-5,7-dihydrofuro[3,4-d]pyrimidin-2-amine] showed a half-inhibitory concentration (IC50) of 157 nM.

`Nc1nc(-c2ccco2)c2c(n1)C(Cc1ccc(F)cc1F)OC2=O` (stereo not shown) [Compound 8, 2-amino-7-(2,4-difluorobenzyl)-4-(furan-2-yl)-5H,7H-furo[3,4-d]pyrimidin-5-one] came in with a half-inhibitory concentration (IC50) of 10.7 nM.

Regarding `Nc1nc(-c2ccco2)c2c(n1)C(Cc1ccc(F)cc1Cl)OC2=O` (stereo not shown) [Compound 10, 2-amino-7-(2-chloro-4-fluorobenzyl)-4-(furan-2-yl)-5H,7H-furo[3,4-d]pyrimidin-5-one], the half-inhibitory concentration (IC50) came to 114 nM.

With `Nc1nc(-c2ccco2)c2c(n1)C(Cc1ccccc1Cl)OC2=O` (stereo not shown) [Compound 11, 2-amino-7-(2-chlorobenzyl)-4-(furan-2-yl)-5H,7H-furo[3,4-d]pyrimidin-5-one], the IC50 was 32.1 nM.

`Nc1nc(-c2ccco2)c2c(n1)C(Cc1ccc(Cl)c(F)c1)OC2=O` (stereo not shown) [Compound 12, 2-amino-7-(4-chloro-3-fluorobenzyl)-4-(furan-2-yl)-5H,7H-furo[3,4-d]pyrimidin-5-one]: the IC50 was found to be 99.8 nM.

Consider `CS(=O)(=O)c1ccc(CC2OC(=O)c3c(-c4ccco4)nc(N)nc32)cc1` (stereo not shown) [Compound 13, 2-amino-4-(furan-2-yl)-7-(4-methylsulfonylbenzyl)-5H,7H-furo[3,4-d]pyrimidin-5-one], for which the IC50 came out at 152 nM.

On to `NC(=O)c1ccc(CC2OC(=O)c3c(-c4ccco4)nc(N)nc32)cc1` (stereo not shown) [Compound 14, 4-((2-amino-4-(furan-2-yl)-5-oxo-5H,7H-furo[3,4-d]pyrimidin-7-yl)methyl)benzamide], for which the IC50 was determined as 218 nM.

On to `Nc1nc(-c2ccco2)c2c(n1)C(Cc1ccc(C(F)(F)F)cc1)OC2=O` (stereo not shown) [Compound 15], for which the IC50 is 274 nM.

As for `Nc1nc(-c2ccco2)c2c(n1)C(Cc1ccccc1C(F)(F)F)OC2=O` (stereo not shown) [Compound 16, 2-amino-4-(furan-2-yl)-7-((2-(trifluoromethyl)phenyl)methyl)-5H,7H-furo[3,4-d]pyrimidin-5-one], the IC50 stood at 15.7 nM.

As for `Nc1nc(-c2ccco2)c2c(n1)C(Cc1c(F)cccc1Cl)OC2=O` (stereo not shown) [Compound 17, 2-amino-7-((2-chloro-6-fluorophenyl)methyl)-4-(furan-2-yl)-5H,7H-furo[3,4-d]pyrimidin-5-one], the IC50 turned out to be 29.2 nM.

Regarding `Nc1nc(-c2ccco2)c2c(n1)C(Cc1cccc(Cl)c1F)OC2=O` (stereo not shown) [Compound 18, 2-amino-7-((3-chloro-2-fluorophenyl)methyl)-4-(furan-2-yl)-5H,7H-furo[3,4-d]pyrimidin-5-one], the IC50 was determined as 73.7 nM. Against the preceding compound, the IC50 is about 2.5-fold higher.

In turn, `Cc1ccccc1CC1OC(=O)c2c(-c3ccco3)nc(N)nc21` (stereo not shown) [Compound 19, 2-amino-7-((2-methylphenyl)methyl)-4-(furan-2-yl)-5H,7H-furo[3,4-d]pyrimidin-5-one] registered an IC50 of 31.1 nM.

Take `Nc1nc(-c2ccco2)c2c(n1)C(Cc1cc(C(F)(F)F)cc(C(F)(F)F)c1)OC2=O` (stereo not shown) [Compound 20, 2-amino-7-((3,5-di(trifluoromethyl)phenyl)methyl)-4-(furan-2-yl)-5H,7H-furo[3,4-d]pyrimidin-5-one]: the IC50 is 299 nM.

`Nc1nc(-c2ccco2)c2c(n1)C(Cc1ccc(OC(F)(F)F)cc1)OC2=O` (stereo not shown) [Compound 21, 2-amino-7-((4-(trifluoromethoxyl)phenyl)methyl)-4-(furan-2-yl)-5H,7H-furo[3,4-d]pyrimidin-5-one] showed a 50% inhibitory concentration (IC50) of 106 nM. This IC50 is about 2.8-fold lower than that of the compound before.

As for `Nc1nc(-c2ccco2)c2c(n1)C(Cc1c(F)cccc1F)OC2=O` (stereo not shown) [Compound 22, 2-amino-7-((2,6-difluorophenyl)methyl)-4-(furan-2-yl)-5H,7H-furo[3,4-d]pyrimidin-5-one], the IC50 was determined as 47.3 nM.

The compound `Nc1nc(-c2ccco2)c2c(n1)C(Cc1ccccc1OC(F)(F)F)OC2=O` (stereo not shown) [Compound 23, 2-amino-7-((2-(trifluoromethoxyl)phenyl)methyl)-4-(furan-2-yl)-5H,7H-furo[3,4-d]pyrimidin-5-one] displayed an IC50 of 3.9 nM.

Regarding `Nc1nc(-c2ccccn2)c2c(n1)C(Cc1ccccc1)OC2=O` (stereo not shown) [Compound 24, 2-amino-7-benzyl-4-(pyridin-2-yl)-5H,7H-furo[3,4-d]pyrimidin-5-one], the IC50 is 918 nM.

As for `Cc1ccc(-c2nc(N)nc3c2C(=O)OC3Cc2ccc(F)cc2F)o1` (stereo not shown) [Compound 26, 2-amino-7-((2,4-difluorophenyl)methyl)-4-(5-methylfuran-2-yl)-5H,7H-furo[3,4-d]pyrimidin-5-one], the IC50 came to 32.1 nM.

Compound `Cc1ccc(-c2nc(N)nc3c2C(=O)OC3Cc2ccccc2F)o1` (stereo not shown) [Compound 27, 2-amino-7-((2-fluorophenyl)methyl)-4-(5-methylfuran-2-yl)-5H,7H-furo[3,4-d]pyrimidin-5-one] registered an IC50 of 21 nM.

`Cc1ccc(-c2nc(N)nc3c2C(=O)OC3Cc2ccccc2C(F)(F)F)o1` (stereo not shown) [Compound 28, 2-amino-7-((2-(trifluoromethyl)phenyl)methyl)-4-(5-methylfuran-2-yl)-5H,7H-furo[3,4-d]pyrimidin-5-one] showed an IC50 of 11.2 nM.

`Cc1ccc(-c2nc(N)nc3c2C(=O)OC3Cc2cc(F)ccc2F)o1` (stereo not shown) [Compound 29, 2-amino-7-((2,5-difluorophenyl)methyl)-4-(5-methylfuran-2-yl)-5H,7H-furo[3,4-d]pyrimidin-5-one] gave an IC50 of 252 nM.

On to `Cc1ccc(-c2nc(N)nc3c2C(=O)OC3Cc2cc(Cl)ccc2F)o1` (stereo not shown) [Compound 30, 2-amino-7-((5-chloro-2-fluorophenyl)methyl)-4-(5-methylfuran-2-yl)-5H,7H-furo[3,4-d]pyrimidin-5-one], for which the IC50 was 94 nM.

The compound `Cc1ccc(-c2nc(N)nc3c2C(=O)OC3Cc2c(F)cccc2Cl)o1` (stereo not shown) [Compound 31, 2-amino-7-((6-chloro-2-fluorophenyl)methyl)-4-(5-methylfuran-2-yl)-5H,7H-furo[3,4-d]pyrimidin-5-one] had an IC50 of 38.4 nM.

As to `Cc1ccc(-c2nc(N)nc3c2C(=O)OC3Cc2ccc(F)cc2C(F)(F)F)o1` (stereo not shown) [Compound 32, 2-amino-7-((4-fluoro-2-(trifluoromethyl)phenyl)methyl)-4-(5-methylfuran-2-yl)-5H,7H-furo[3,4-d]pyrimidin-5-one], the IC50 worked out at 19.9 nM.

`Nc1nc(-c2ccco2)c2c(n1)[C@H](Cc1ccccc1)OC2` [Compound 33, (S)-7-benzyl-4-(furan-2-yl)-5,7-dihydrofuro[3,4-d]pyrimidin-2-amine] showed an IC50 of 275 nM.

In turn, `Cn1c(=O)n(Cc2ccc(F)cc2F)c2nc(N)nc(-c3ccco3)c21` [Compound 35, 2-amino-9-((2,4-difluorophenyl)methyl)-6-(furan-2-yl)-7-methyl-8,9-dihydro-7H-purinyl-8-one] displayed an IC50 of 30.1 nM.

With `Cc1ccc(-c2nc(N)nc3c2C(=O)OC3Cc2ccccc2OC(F)(F)F)o1` (stereo not shown) [Compound 36, 2-amino-7-((2-(trifluoromethoxyl)phenyl)methyl)-4-(5-methylfuran-2-yl)-5H,7H-furo[3,4-d]pyrimidin-5-one], the IC50 turned out to be 28.1 nM.

Compound `Nc1nc(-c2ccc(Br)o2)c2c(n1)C(Cc1ccccc1OC(F)(F)F)OC2=O` (stereo not shown) [Compound 37, 2-amino-7-((2-(trifluoromethoxyl)phenyl)methyl)-4-(5-bromofuran-2-yl)-5H,7H-furo[3,4-d]pyrimidin-5-one] came in with an IC50 of 67.4 nM.

On to `CN1C(=O)c2c(nc(N)nc2-c2ccco2)C1=Cc1ccccc1F` [Compound 38, 2-amino-7-((2-fluorophenyl)methylene)-4-(furan-2-yl)-6-methyl-5H,6H,7H-pyrrolo[3,4-d]pyrimidin-5-one], for which the IC50 was found to be 6.1 nM.

For `Cc1ccc(-c2nc(N)nc3c2C(=O)OC3Cc2ccccc2OC(F)F)o1` (stereo not shown) [Compound 39, 2-amino-7-((2-(difluoromethoxyl)phenyl)methyl)-4-(5-methylfuran-2-yl)-5H,7H-furo[3,4-d]pyrimidin-5-one], the IC50 came to 128 nM.

`Cn1c(=O)n(Cc2ccccc2F)c2nc(N)nc(-c3ccco3)c21` [Compound 41, 2-amino-9-((2-fluorophenyl)methyl)-6-(furan-2-yl)-7-methyl-8,9-dihydro-7H-purinyl-8-one] had an IC50 of 43.5 nM.

Compound `Cc1ccc(-c2nc(N)nc3c2C(=O)OC3Cc2ccc(F)cc2F)o1` (stereo not shown) [Compound 42, 2-amino-7-((2,4-difluorophenyl)methyl)-7-deuterium-4-(5-methylfuran-2-yl)-5H,7H-furo[3,4-d]pyrimidin-5-one] registered a half-inhibitory concentration (IC50) of 87.4 nM.

`Cc1ccc(-c2nc(N)nc3c2C(=O)OC3(C)Cc2ccccc2F)o1` (stereo not shown) [Compound 43, 2-amino-7-((2-fluorophenyl)methyl)-7-methyl-4-(5-methylfuran-2-yl)-5H,7H-furo[3,4-d]pyrimidin-5-one] gave an IC50 of 992 nM.

For `CN1C(=O)c2c(-c3ccco3)nc(N)nc2C1Cc1ccccc1F` (stereo not shown) [Compound 44, 2-amino-7-((2-fluorophenyl)methyl)-4-(furan-2-yl)-6-methyl-5H,6H,7H-pyrrolo[3,4-d]pyrimidin-5-one], the IC50 came to 64.6 nM.

Broadly, the IC50 is the concentration that gives 50% inhibition. High values mean lower potency, low ones higher potency.
